Marks after values point to notes of the source that are not given here. Where a SMILES comes first, the peptide text is derived from it. [ ]: non-standard residue; d: D form. dPhe(4-Cl) = N[C@H](Cc1ccc(Cl)cc1)C(=O)O; d2Nal = N[C@H](Cc1ccc2ccccc2c1)C(=O)O; dCit = NC(=O)NCCC[C@@H](N)C(=O)O; d3Pal = N[C@H](Cc1cccnc1)C(=O)O
Legend:
[1] = test system: CRP, ESR; settings: all patients
Protocol: Ethical committee approval was obtained. A blinded independent committee, the Oslo University Hospital Data Monitoring Committee, regularly reviewed source documents against case record forms. Safety and efficacy visits, with blood sampling, were between 0730 and 0930 h on days 1 (baseline), 2, 3, 4, 5 (visit 5a), 10, and 15. There was an additional visit (visit 5b) between 1930 and 2130 h when maximum GnRH suppression was anticipated. Using computer-generated allocation, patients were randomly assigned 1:1 to cetrorelix (5 mg/day s.c. on days 1 and 2, 3 mg/day on days 3-5) or corresponding volumes of placebo. The cetrorelix doses were chosen to achieve rapid reductions in GnRH, LH, a surrogate marker for GnRH, and FSH. TNF-α was measured using multiplex technology with a high sensitivity (0.5 pg/mL) assay.
The predefined primary end-point was the baseline adjusted between-group difference in DAS28-CRP by visit 5b. Predefined secondary end-points included the baseline adjusted between-group difference inTNF-α, ACR20/50/70 responses, European League Against Rheumatism (EULAR) responses, DAS28-CRP <2.6 and ≦3.2, and adverse events. Continuous end-points were assessed with regression using day 5 as the response variable, and treatment and baseline measurement as covariates (ANCOVA). No adjustments for multiple analyses were made because of the highly correlated variables. Statistical tests were twosided (α ¼0.05) using Stat12/StatXact9, and performed by an offsite statistician who received the locked database from the blinded investigators, and the allocation key from the offsite central office.

[2] = test system: RA patients; experiment: Example 1: adverse events; type: in vivo, human
Protocol: Ethical committee approval was obtained. […] Safety and efficacy visits, with blood sampling, were between 0730 and 0930 h on days 1 (baseline), 2, 3, 4, 5 (visit 5a), 10, and 15. There was an additional visit (visit 5b) between 1930 and 2130 h when maximum GnRH suppression was anticipated.
Predefined secondary end-points included the baseline adjusted between-group difference inTNF-α, ACR20/50/70 responses, European League Against Rheumatism (EULAR) responses, DAS28-CRP <2.6 and ≦3.2, and adverse events.
The Newcombe hybrid score interval was used to estimate 95% confidence intervals (CI) for the difference between proportions (Fagerland M W, et al., Stat Methods Med Res 2011). No adjustments for multiple analyses were made, owing to the highly correlated variables. All clinical, biochemical, and safety data were analyzed by an intention-to-treat analysis. Only predefined endpoints are presented. The intention-to-treat population was predefined in the protocol as all randomized patients who received any injections of study drug. Missing values were <1% and could, as predefined, be imputed with the last observation carried forward. The assumptions of normality needed for analyses were approximately valid. The Spearman rank correlation coefficient (Spearman's rho) was used to estimate the association between pairs of continuous variables.

[3] = test system: interleukin-1β; experiment: Example 2: serum cytokine, multiplex high-sensitivity assay, interleukin-1β; type: in vivo, human; settings: high gonadotropin patients
Protocol: (§1) The protocol-specified primary and secondary intention-to-treat endpoints of the original AGRA trial were analyzed in these post hoc analyses. The primary endpoint was the baseline-adjusted between-group difference in DAS28-CRP (Wells et al., supra) by day 5b. Secondary endpoints included the baseline-adjusted between-group difference in cytokines, proportions of patients achieving at least a 20%, 50%, and 70% improvement on the ACR scale (Felson D T, et al., Arthritis Rheum 1995; 38:727-35), categorical DAS28-CRP (European League Against […] [EULAR]) responses (Wells et al., supra; van Gestel A M, et al., Arthritis Rheum 1996; 39:34-40), DAS28-CRP≦3.2 (Wells et al., supra), DAS28-CRP<2.6 (Wells et al., supra), and the incidence of adverse events. Protocol-specified DAS28 outcomes were preferentially CRP-based rather than erythrocyte sedimentation rate (ESR)-based, as CRP usually changes before ESR. […] Multiplex technology (Luminex Inc., Austin, Tex.) measured these serum cytokines using high-sensitivity assays (sensitivities <0.5 pg/mL, allowing the detection of very low concentrations of cytokines) and identical lots of critical reagent of negligible cross-reactivity <2%, according to manufacturers' instructions (Bio-Rad, Hercules, Calif.). […] To enable intention-to-treat analyses with all patients N=53, non-detectable values were set at the lower limit of detection for cytokines, as is common for CRP values.
(§2) The original power calculation is previously reported (Kass A S, et al., Scand J Rheumatol Epub ahead of print 1 Nov. 2013). Baseline-adjusted between-group differences for all continuous endpoints were assessed with the use of analysis-of-covariance using outcome measurements at predefined time points as response variables, and treatment and baseline measurements as covariates. Dichotomous endpoints were compared with the Pearson chi-square test or Suissa-Shuster exact unconditional test, depending on expected-value distribution (Lydersen S, et al., Stat Med 2009; 28:1159-75). No adjustments for multiple analyses were made, owing to highly correlated endpoints. Due to skewed distributions, between-group changes of natural log-transformed cytokine levels from baseline were compared.

[4] = test system: interleukin-2; experiment: Example 2: serum cytokine, multiplex high-sensitivity assay, interleukin-2; type: in vivo, human; settings: high gonadotropin patients
Protocol: as §1, §2

[5] = test system: interleukin-10; experiment: Example 2: serum cytokine, multiplex high-sensitivity assay, interleukin-10; type: in vivo, human; settings: high gonadotropin patients
Protocol: as §1, §2

[6] = test system: RA patients with high gonadotropin levels; experiment: Example 2: adverse events in high gonadotropin patients; type: in vivo, human
Protocol: The intention-to-treat population was predefined as all randomised patients who received any study-drug injections. Missing values were <1% and could, as predefined, be imputed with the last-observation-carried-forward. The assumptions of normality needed for analyses were approximately valid. All statistical tests were two-sided (α=0.05) and performed with Stata 12 and StatXact 9. Analyses were performed by an offsite statistician who received locked databases from blinded investigators and laboratories, and the allocation key from the offsite central office.

**Q.** Which results are given for CC(=O)N[C@H](Cc1ccc2ccccc2c1)C(=O)N[C@H](Cc1ccc(Cl)cc1)C(=O)N[C@H](Cc1cccnc1)C(=O)N[C@@H](CO)C(=O)N[C@@H](Cc1ccc(O)cc1)C(=O)N[C@H](CCCNC(N)=O)C(=O)N[C@@H](CC(C)C)C(=O)N[C@@H](CCCNC(=N)N)C(=O)N1CCC[C@H]1C(=O)N[C@H](C)C(N)=O [cetrorelix] (Ac-[d2Nal][dPhe(4-Cl)][d3Pal]SY[dCit]LRP[dA]-NH2)?
**A.** CRP levels after withdrawal of treatment ([1]; by day 15): remained lowered; CRP reduction compared to placebo ([1]; day 5, p 0.060): Non-significant reductions; ESR reduction compared to placebo ([1]; day 15, p 0.051): Non-significant reductions; Adverse effects: Headache ([2]; N = 48): 2 (4.2) n (percent); Adverse effects: Hot flushes ([2]; N = 48): 2 (4.2) n (percent); Adverse effects: Injection site discomfort ([2]; N = 48): 3 (6.3) n (percent); Adverse effects: Menstrual spotting ([2]; N = 48): 2 (4.2) n (percent); Adverse effects: Nasopharyngitis ([2]; N = 48): 1 (2.1) n (percent); Adverse effects: Nausea ([2]; N = 48): 0 n (percent); Adverse effects: Toothache ([2]; N = 48): 0 n (percent); Adverse effects: Urinary tract infection ([2]; N = 48): 1 (2.1) n (percent); serious side-effects ([2]; all patients): no serious side-effects were observed; IL-1β level, Final Day 15 ([3]; N = 27, mean ± SD): −1.68 ± 1.4 log pg/mL; IL-1β Change from baseline by day 15 ([3]; N = 27, placebo +0.10): −0.20 log pg/mL; Interleukin-1β change compared with placebo ([3]; by day 15, P=0.034): significantly decreased; IL-1β Baseline-Adjusted Between-Group Difference ([3]; day 15, 95% CI (0.02, 0.59), P < 0.05): 0.30‡ log pg/mL; IL-2 level, Final Day 15 ([4]; N = 27, mean ± SD): −3.39 ± 2.9 log pg/mL; IL-2 Change from baseline by day 15 ([4]; N = 27, placebo +0.02): −0.42 log pg/mL; interleukin-2 change compared with placebo ([4]; by day 15, P=0.088): decreased non-significantly; IL-2 Baseline-Adjusted Between-Group Difference ([4]; day 15, 95% CI (−1.09, 0.08)): -0.51 log pg/mL; IL-10 level, Final Day 15 ([5]; N = 27, mean ± SD): −0.31 ± 2.1 log pg/mL; IL-10 Change from baseline by day 15 ([5]; N = 27, placebo +0.13): −0.40 log pg/mL; interleukin-10 change compared with placebo ([5]; by day 15, P=0.020): significantly decreased; IL-10 Baseline-Adjusted Between-Group Difference ([5]; day 15, 95% CI (0.10, 1.08), P < 0.05): 0.59‡ log pg/mL; Adverse events: Headache ([6]; N = 27): 2 (7.4) no. %; Adverse events: Injection site discomfort ([6]; N = 27): 2 (7.4) no. %; Adverse events: Nausea ([6]; N = 27): 0 no. %; Adverse events severity ([6]; high gonadotropin patients): mild
